Inhibition and IC50 data for 13 compounds are collected here from patent US20030180797A1, “Identification of ligands for a receptor family and related methods” (priority 2002, published 2003).

Common to all, as to type: biochemical
The target of one test is T1, ADH from Bakers Yeast (Saccharomyces cerevisiae, UniProt P00330).
T1 sequence (P00330 1-348): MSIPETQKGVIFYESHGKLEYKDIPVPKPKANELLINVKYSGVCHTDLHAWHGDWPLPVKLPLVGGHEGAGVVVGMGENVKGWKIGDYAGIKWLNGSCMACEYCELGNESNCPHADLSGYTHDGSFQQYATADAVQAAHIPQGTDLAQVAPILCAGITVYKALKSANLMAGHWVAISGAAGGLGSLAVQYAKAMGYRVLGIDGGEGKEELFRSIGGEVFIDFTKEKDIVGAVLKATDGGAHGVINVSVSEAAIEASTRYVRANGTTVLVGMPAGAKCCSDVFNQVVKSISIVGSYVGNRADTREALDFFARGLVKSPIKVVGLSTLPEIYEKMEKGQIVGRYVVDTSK
Nature of the test: Alcohol dehydrogenase (ADH) kinetic spectrophotometric assay, NAD+ reduction. As to conditions: Cibacron Blue at 15.5 μM; read-out: inhibition of ADH, positive control. As for the experimental part: Inhibitor solutions were prepared in DMSO so that, when diluted, the inhibitor concentration was 100 μM and the final DMSO concentration was adjusted to 5%. […] The reaction was then initiated with 10 μl of ADH from Bakers Yeast (Saccharomyces cerevisiae) (3.3 μg/ml; 1:400 dilution of 1.0 mg/ml). […] Reading of the samples was continued until 300 seconds.
Where only a simple read was desired, as in the case of NAD+ concentration determination, 13 μl (10 M stock) of ethanol was used to drive the reaction, and 10 μl of pure enzyme (1 mg/ml) was used. NAD+ was soluble at 2 mM. In this situation, the procedure was as follows. All of the ingredients except for the enzyme were mixed together. The solution was mixed well and the absorbance at 340 nm read. The enzyme was added and read again at OD 340 after the absorbance stopped changing, generally 10 to 15 minutes after the enzyme was added.

For another test, the target named is T2, human DHFR (Homo sapiens, UniProt P00374).
T2 sequence (P00374 1-187): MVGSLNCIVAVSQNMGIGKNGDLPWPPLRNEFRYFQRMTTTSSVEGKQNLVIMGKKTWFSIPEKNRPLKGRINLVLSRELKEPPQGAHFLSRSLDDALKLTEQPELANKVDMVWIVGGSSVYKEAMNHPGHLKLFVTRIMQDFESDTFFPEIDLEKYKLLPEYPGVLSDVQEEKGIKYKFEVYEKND
The test is described as follows: Dihydrofolate reductase (DHFR) kinetic spectrophotometric assay. To be noted: Cibacron Blue at 3 μM; read-out: inhibition of DHFR, positive control. As for the experimental part: H2 folate was dissolved in DMSO to about 10 mM and then diluted with water to a concentration of 0.1 mM.
Inhibitor solutions were prepared in DMSO so that, when diluted, the inhibitor concentration was 100 μM and the final DMSO concentration was adjusted to 5%. […] The reaction was then initiated with 8 μl of human DHFR (0.047 mg/ml; 1:85 dilution of 4 mg/ml stock solution). After the enzyme was added, the reaction was run for 10 minutes.
(§1) When bi-ligands were screened, the substrate concentration and NADPH or NADH concentrations were kept near their Km values. When assaying common ligands (CLMs), the substrate concentration was increased to at least 10 times the Km. If the compounds assayed were specificity ligands (substrate mimics), the NAPDH or NADH concentration was increased.

A further test deals with T3, LDH from Rabbit Muscle (Oryctolagus cuniculus, UniProt P13491).
T3 construct: 10 μl of diluted LDH from Rabbit Muscle; from tissue; host or cells: rabbit muscle
The test is described as follows: Lactate dehydrogenase (LDH) kinetic spectrophotometric assay, NADH oxidation. As to conditions: Cibacron Blue at 10.3 mM; read-out: inhibition of LDH, positive control. As for the experimental part: [table] […] These solutions were incubated for 6 minutes at 25° C. in 990 μl of a solution containing 0.1 M HEPES, pH 7.4, […], and 2.5 mM of pyruvate. The reaction was then initiated with 10 μl of diluted LDH from Rabbit Muscle (0.5 μg/ml; 1:2000 dilution of 1.0 mg/ml stock solution). […] Reading of the samples was continued until 300 seconds. […] When bi-ligands were screened, the substrate concentration and NADPH or NADH concentrations were kept near their Km values. […] If the compounds assayed were specificity ligands (substrate mimics), the NAPDH or NADH concentration was increased.

Test [1] has as its target T4, E. coli DHPR enzyme (Escherichia coli, UniProt P04036). Nature of the test: Dihydrodipicolinate reductase (DHPR) kinetic spectrophotometric assay, NADPH oxidation at 340 nm. To be noted: for IC50: bi-ligands and pyridine dicarboxylate derivatives, Example VII, FIG. 8. The method, then:
DHPR was diluted in 10 mM HEPES, pH 7.4. Dihydrodipicolinate synthase (DHPS) was not diluted and was stored in eppendorf tubes.
The L-aspartate semialdehyde (L-ASA) solution was prepared in the following manner. A 180 μM stock solution of ASA was prepared. 100 μl of the ASA stock solution was mixed with 150 μl of concentrated NaHCO3 and 375 μl of H2O. […] The L-ASA stock solution was kept at a temperature of −20° C. After dilution, the pH of the 28.8 mM solution was checked and maintained between pH 1 to 2.
The solution for background detection was a 945 μl solution containing 0.1 M HEPES, pH 7.8, 1 mM pyruvate, 6 μM NADPH, 40 μM L-ASA, and 7 μl of 1 mg/ml DHPS at 25° C. in the volumes indicated above. The sample solution was then mixed and incubated for 10 minutes. Inhibitor solutions (500 nM or 100 μM final concentration) and enough dimethylsulfoxide (DMSO) to provide a final DMSO concentration of 5% were added. The solution was mixed and incubated for an additional 6 minutes.
In DHPR samples, the DHPR stock solution was diluted and 5 μl of diluted E. coli DHPR enzyme (1:1000 dilution of 1 mg/ml stock) were added. The sample was mixed for 20 seconds, and then the reaction was run for […]. […] Reading of the samples was continued until 300 seconds.
For assaying bi-ligands, the substrate concentration and the NADPH or NADH concentration were kept near their Km values. […] If substrate mimics (specificity ligands) were tested, the NADPH or NADH concentration was increased.

For test [2], the target named is DOXP reductoisomerase from E. coli (Escherichia coli, UniProt P45568). Nature of the test: 1-Deoxy-D-xylulose-5-phosphate reductoisomerase (DOXPR) kinetic spectrophotometric assay, NADPH oxidation. To be noted: Cibacron Blue at 10.32 μM; read-out: inhibition of DOXPR, positive control. The method, then: DOXPR was diluted in 10 mM HEPES, pH 7.4.
Sequence of DOXP reductoisomerase from E. coli (P45568 whole entry): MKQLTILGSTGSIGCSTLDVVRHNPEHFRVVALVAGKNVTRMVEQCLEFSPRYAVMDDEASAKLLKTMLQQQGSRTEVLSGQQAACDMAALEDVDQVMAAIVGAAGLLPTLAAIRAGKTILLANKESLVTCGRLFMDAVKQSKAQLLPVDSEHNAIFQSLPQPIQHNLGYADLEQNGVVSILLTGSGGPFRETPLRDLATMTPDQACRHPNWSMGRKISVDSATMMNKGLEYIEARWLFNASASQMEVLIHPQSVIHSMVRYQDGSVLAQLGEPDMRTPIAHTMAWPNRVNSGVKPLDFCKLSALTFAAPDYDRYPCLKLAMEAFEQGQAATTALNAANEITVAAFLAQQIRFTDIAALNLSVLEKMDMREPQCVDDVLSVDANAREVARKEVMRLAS
Solutions of the inhibitors in DMSO were prepared to provide a final DMSO concentration of 5%. […] 1.15 mM DOXP, and 8 μM NADPH. The reaction was then initiated with 10 μl of DOXP reductoisomerase (also known as DOXP reductase) from E. coli (10 μg/ml; 1:200 diilution of 2 mg/ml stock solution).
as §1

The target in test [3] is T4, E. coli DHPR enzyme. The test is described as follows: Dihydrodipicolinate reductase (DHPR) kinetic spectrophotometric assay, NADPH oxidation at 340 nm. To be noted: read-out: inhibition of DHPR activity.

SMILES strings stand for the structures. Several values for one entry are separate records, joined by “and”; a condition that tells them apart may be missing. Identical values can stand only once.

T4 sequence (P04036 whole entry): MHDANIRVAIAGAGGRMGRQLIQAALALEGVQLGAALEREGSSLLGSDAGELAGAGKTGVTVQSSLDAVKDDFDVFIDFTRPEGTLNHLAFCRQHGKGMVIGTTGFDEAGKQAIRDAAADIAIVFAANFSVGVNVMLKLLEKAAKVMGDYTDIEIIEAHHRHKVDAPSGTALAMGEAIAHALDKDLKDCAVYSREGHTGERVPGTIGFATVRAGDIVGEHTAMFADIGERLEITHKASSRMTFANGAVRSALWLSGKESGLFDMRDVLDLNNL

Regarding `Nc1c(S(=O)(=O)O)cc(Nc2ccc(Nc3nc(Cl)nc(Nc4ccccc4S(=O)(=O)O)n3)c(S(=O)(=O)O)c2)c2c1C(=O)c1ccccc1C2=O` [Cibacron Blue], the inhibition (commonly the percentage by which the read-out fell short of the control) at 15.5 µM at ADH from Bakers Yeast lay within 50 to 60%. Moreover, the inhibition at 3 µM at human DHFR was 50 to 70%. The inhibition at 10300 µM on LDH from Rabbit Muscle lay in the range of 50 to 70%. Further, the inhibition at 2580 µM on E. coli DHPR enzyme [1] (read-out: inhibition of DHPR, positive control) is 70 to 80%. In test [2], the inhibition at 10.32 µM lay within 70 to 80%.

Turning to `O=C1NC(=O)C(=Cc2ccc(-c3ccc(C(=O)NCCSc4cc(C(=O)O)nc(C(=O)O)c4)cc3)o2)S1` [compound 12a, 4-(2-{4-[5-(2,4-dioxo-thiazolidin-5-ylidenemethyl)-furan-2-yl]-benzoylamino}-ethylsufanyl)-pyridine-2,6-dicarboxylic acid], the IC50 – broadly, the concentration that gives 50% inhibition – against E. coli DHPR enzyme [1] is approximately 0.536 µM.

Consider `O=C1NC(=S)SC1=Cc1ccc(-c2ccc(C(=O)NCCSc3cc(C(=O)O)nc(C(=O)O)c3)cc2)o1` [compound 12b, 4-(2-{4-[5-(4-oxo-2-thioxo-thiazolidin-5-ylidenemethyl)-furan-2-yl]-benzoylamino}-ethylsulfanyl)-pyridine-2,6-dicarboxylic acid], for which the IC50 on E. coli DHPR enzyme [1] was approximately 7.1 µM.

Take `O=C1NC(=O)C(=Cc2ccc(-c3cccc(C(=O)NCCSc4cc(C(=O)O)nc(C(=O)O)c4)c3)o2)S1` [compound 12c, 4-(2-{3-[5-(2,4-dioxo-thiazolidin-5-ylidenemethyl)-furan-2-yl]-benzoylamino}-ethylsulfanyl)-pyridine-2,6-dicarboxylic acid]: the half-inhibitory concentration (IC50) on E. coli DHPR enzyme [1] is approximately 13 µM.

Turning to `O=C1NC(=S)SC1=Cc1ccc(-c2cccc(C(=O)NCCSc3cc(C(=O)O)nc(C(=O)O)c3)c2)o1` [compound 12d, 4-(2-{3-[5-(4-oxo-2-thioxo-thiazolidin-5-ylidenemethyl)-furan-2-yl]-benzoylamino}-ethylsulfanyl)-pyridine-2,6-dicarboxylic acid], on E. coli DHPR enzyme [1], the half-maximal inhibitory concentration (IC50) was approximately 0.254 µM.

For `O=C1NC(=O)C(=Cc2ccc(-c3ccc(O)c(C(=O)NCCSc4cc(C(=O)O)nc(C(=O)O)c4)c3)o2)S1` [compound 12f, 4-(2-{5-[5-(2,4-dioxo-thiazolidin-5-ylidenemethyl)-furan-2-yl]-2-hydroxy-benzoylamino}-ethylsulfanyl)-pyridine-2,6-dicarboxylic acid], the half-inhibitory concentration (IC50) at E. coli DHPR enzyme [1] is approximately 4.91 µM.

For the compound `N=C1NC(=O)C(=Cc2ccc(O)c(C(=O)NCCSc3cc(C(=O)O)nc(C(=O)O)c3)c2)S1` [compound 16a, 4-{2-[2-hydroxy-5-(2-imino-4-oxo-thiazolidin-5-ylidenemethyl)-benzoylamino]-ethylsulfanyl}-pyridine-2,6-dicarboxylic acid], on E. coli DHPR enzyme [1], the IC50 is ~8.2 µM and ~15.5 µM.

Take `N=C1NC(=O)C(=Cc2cccc(C(=O)NCCSc3cc(C(=O)O)nc(C(=O)O)c3)c2)S1` [compound 16b, 4-{2-[3-(2-imino-4-oxo-thiazolidin-5-ylidenemethyl)-benzoylamino]-ethylsulfanyl}-pyridine-2,6-dicarboxylic acid]: the IC50 against E. coli DHPR enzyme [1] was approximately 1.02 µM.

For the compound `N=C1NC(=O)C(=Cc2ccc(C(=O)NCCSc3cc(C(=O)O)nc(C(=O)O)c3)cc2)S1` [compound 16c, 4-{2-[4-(2-imino-4-oxo-thiazolidin-5-ylidenemethyl)-benzoylamino]-ethylsulfanyl}-pyridine-2,6-dicarboxylic acid], the IC50 against E. coli DHPR enzyme [1] is approximately 33 µM.

With `O=C(NCCSc1cc(C(=O)O)nc(C(=O)O)c1)c1ccc(-c2ccc(-c3nc4cc([N+](=O)[O-])ccc4[nH]3)o2)cc1` [compound 21a, 4-(2-{4-[5-(5-nitro-1H-benzoimidazol-2-yl)-furan-2-yl]-benzoylamino}-ethylsulfanyl)-pyridine-2,6-dicarboxylic acid], the concentration for half-maximal inhibition (IC50) against E. coli DHPR enzyme [1] is approximately 0.758 µM.

On to `CC(=O)NCCSc1cc(C(=O)O)nc(C(=O)O)c1` [compound 22, 4-(2-acetylamino-ethylsulfanyl)-pyridine-2,6-dicarboxylic acid], for which the inhibition at 800 µM at E. coli DHPR enzyme [3] is approximately 31%.

On E. coli DHPR enzyme [1], `O=C(NCCSc1cc(C(=O)O)nc(C(=O)O)c1)c1ccccc1` [compound 23, 4-(2-benzoylamino-ethylsulfanyl)-pyridine-2,6-dicarboxylic acid] registered a concentration for half-maximal inhibition (IC50) of 78.3 µM.

`O=C(O)c1cc(SCCNC(=O)c2cc3cccc(O)c3cc2O)cc(C(=O)O)n1` [compound 24, 4-{2-[(3,5-dihydroxy-naphthalene-2-carbonyl)-amino]-ethylsulfanyl}-pyridine-2,6-dicarboxylic acid] came in with a half-inhibitory concentration (IC50) against E. coli DHPR enzyme [1] of 2 µM.
